Experiment [1] deals with T1, EHMT1 (Homo sapiens, UniProt Q9H9B1).
T1 sequence (Q9H9B1 1-1298): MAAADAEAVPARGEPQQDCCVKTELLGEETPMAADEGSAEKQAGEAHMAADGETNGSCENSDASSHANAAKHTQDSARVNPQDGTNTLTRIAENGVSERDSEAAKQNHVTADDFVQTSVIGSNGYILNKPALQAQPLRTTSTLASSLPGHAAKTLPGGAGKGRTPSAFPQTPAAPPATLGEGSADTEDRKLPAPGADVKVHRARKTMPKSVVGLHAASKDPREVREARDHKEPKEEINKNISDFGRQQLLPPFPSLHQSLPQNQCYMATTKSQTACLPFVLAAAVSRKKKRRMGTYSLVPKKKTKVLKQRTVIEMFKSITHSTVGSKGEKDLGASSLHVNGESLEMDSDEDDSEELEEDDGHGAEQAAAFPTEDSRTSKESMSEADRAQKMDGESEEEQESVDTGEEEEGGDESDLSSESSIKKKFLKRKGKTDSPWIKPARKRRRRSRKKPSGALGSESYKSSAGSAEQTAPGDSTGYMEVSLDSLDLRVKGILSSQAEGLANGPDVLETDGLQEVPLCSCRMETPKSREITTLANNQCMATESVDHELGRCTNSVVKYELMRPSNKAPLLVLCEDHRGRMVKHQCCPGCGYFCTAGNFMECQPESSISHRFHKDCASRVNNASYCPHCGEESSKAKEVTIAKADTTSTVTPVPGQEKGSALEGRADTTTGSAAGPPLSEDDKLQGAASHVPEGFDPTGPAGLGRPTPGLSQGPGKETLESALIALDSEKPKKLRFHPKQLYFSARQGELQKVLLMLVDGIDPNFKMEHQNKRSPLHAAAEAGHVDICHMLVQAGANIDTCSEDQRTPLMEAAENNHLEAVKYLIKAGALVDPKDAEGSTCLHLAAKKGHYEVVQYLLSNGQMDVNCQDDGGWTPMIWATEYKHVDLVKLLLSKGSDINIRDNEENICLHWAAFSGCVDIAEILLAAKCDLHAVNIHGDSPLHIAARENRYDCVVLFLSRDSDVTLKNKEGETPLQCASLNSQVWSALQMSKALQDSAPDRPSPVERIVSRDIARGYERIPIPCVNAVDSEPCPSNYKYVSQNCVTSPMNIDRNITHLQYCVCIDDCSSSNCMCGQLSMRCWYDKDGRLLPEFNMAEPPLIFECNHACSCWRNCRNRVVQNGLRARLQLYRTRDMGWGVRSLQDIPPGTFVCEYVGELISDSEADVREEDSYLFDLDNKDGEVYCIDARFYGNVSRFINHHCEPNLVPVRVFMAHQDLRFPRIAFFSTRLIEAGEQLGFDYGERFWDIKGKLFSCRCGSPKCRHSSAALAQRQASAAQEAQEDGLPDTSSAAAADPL
Nature of the experiment: EHMT1 enzyme assay on peptide substrate (EHMT1 PEP). It is filed as biochemical. The conditions noted are these: Table VI; read-out: EHMT1 PEP IC50.

The target of experiment [2] is T2, human EHMT2 913-1193 (Homo sapiens, UniProt Q96KQ7).
T2 construct: recombinant purified human EHMT2 913-1193, Viva; purchased Viva
T2 sequence (Q96KQ7 913-1193): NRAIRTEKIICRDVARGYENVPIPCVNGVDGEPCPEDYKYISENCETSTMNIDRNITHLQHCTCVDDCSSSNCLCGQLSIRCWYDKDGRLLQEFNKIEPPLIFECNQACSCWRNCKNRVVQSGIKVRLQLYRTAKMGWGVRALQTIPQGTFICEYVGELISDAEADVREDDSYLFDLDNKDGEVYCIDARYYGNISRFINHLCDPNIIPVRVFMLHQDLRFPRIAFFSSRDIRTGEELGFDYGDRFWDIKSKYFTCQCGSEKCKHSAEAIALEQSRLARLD
Nature of the experiment: EHMT2 enzyme assay on histone peptide substrate (EHMT2 PEP). It is filed as biochemical. The conditions noted are these: Table VI; read-out: EHMT2 PEP IC50. A digest of the protocol:
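Radiometric methyltransferase assay: 0.031 nM EHMT2 913-1193 preincubated 30 min with compound (10-point 3-fold series, top final 50 μM, 2% DMSO) in 20 mM Bicine pH 7.5, 1 mM TCEP. Biotinylated histone peptide methylated with ^3H-SAM for 60 min at room temperature, quenched with unlabeled SAM, captured on streptavidin Flashplates and counted.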

In the case of `CCN1CC[C@@H](COc2cc(Nc3nc(C)cc(NCC4CCOCC4)n3)ccc2OC)C1` [Compound 667], the figures for the IC50 in experiment [1] and in experiment [2] were < 100 nM and 100 to 1000 nM, respectively.
The corresponding values for `CNCCN(C)Cc1cc(Nc2nc(C)cc(NC)n2)ccc1OC` [Compound 680] are 1000 to 10000 nM and 1000 to 10000 nM.
Taken in the same sequence, the figures for `COc1cc2c(C3CCN(C)C3)nc(C)nc2cc1OCCCN1CCCC1` (stereo not drawn) [Compound 745] were 100 to 1000 nM and 100 to 1000 nM.
Taken in the same sequence, the figures for `CCN1CCC(N(C)Cc2cc(Nc3nc(C)cc(NC)n3)ccc2OC)C1` (stereo not drawn) [Compound 651] were 1000 to 10000 nM and > 10000 nM.
Consider `CCN1CC(COc2cc3nc(C)nc(C4CCN(C)CC4)c3cc2OC)C1` [Compound 664], for which the IC50 in experiment [1] and in experiment [2] was 1000 to 10000 nM each time.
With `CCN1CC(N(C)Cc2cc(Nc3nc(C)cc(NC)n3)ccc2OC)C1` [Compound 650], the IC50 in experiment [1] and in experiment [2] was > 10000 nM in each case.
On to `CCN1CC[C@@H](COc2cc3nc(C)cc(C4CCN(C(C)C)CC4)c3cc2OC)C1` [Compound 663], for which the IC50 in experiment [1] and in experiment [2] was < 100 nM in each case.
For the compound `CNCCNC(C)c1cc(Nc2nc(C)cc(NC)n2)ccc1OC` (stereo not drawn) [Compound 1036], the IC50 in experiment [1] and in experiment [2] was 100 to 1000 nM each time.
As to `CNc1nc(C2CCN(CCOC)CC2)c2cc(OC)c(OCCCN3CCCC3)cc2n1` [Compound 740], the IC50 in experiment [1] and in experiment [2] was < 100 nM each time.
For the compound `COc1cc(Nc2ccc3[nH]ncc3c2)ncc1OCCCN1CCCC1` [Compound 643], the half-maximal inhibitory concentration (IC50) in experiment [1] and in experiment [2] was > 10000 nM in each case.
With `COc1cnc(Nc2cccc3nncn23)nc1OCCCN1CCCC1` [Compound 656], the IC50 in experiment [1] and in experiment [2] was > 10000 nM each time.
For the compound `CNc1ccnc(Nc2ccc(OC)c(OCC[C@H]3CCCN3)c2)n1` [Compound 1022], the IC50 in experiment [1] lay within 100 to 1000 nM; in experiment [2], 1000 to 10000 nM.
The corresponding values for `CNc1cc(C)c2cc(OC)c(OCCCN3CCCC3)cc2n1` [Compound 736] are < 100 nM and < 100 nM.
Regarding `CC(C)N1CC[C@@H](COc2cnc(N(C)C3CCNCC3)nc2)C1` [Compound 637], the IC50 in experiment [1] and in experiment [2] was > 10000 nM throughout.
On to `CCN1CC(COc2cc3nc(C)nc(C4CCN(C(C)C)CC4)c3cc2OC)C1` [Compound 665], for which the IC50 in experiment [1] and in experiment [2] was 1000 to 10000 nM each time.
Consider `CCN1CC[C@@H](COc2cc3nc(C)nc(C4CCN(C)CC4)c3cc2OC)C1` [Compound 673], for which the IC50 in experiment [1] and in experiment [2] was 100 to 1000 nM each time.
`COc1cc2c(C3CCN(C)CC3)cc(-c3cn[nH]c3)nc2cc1OCCCN1CCCC1` [Compound 677]: the IC50 in experiment [1] and in experiment [2] was < 100 nM in each case.
With `COc1cc(Nc2ccc3[nH]ncc3n2)ncc1OCCCN1CCCC1` [Compound 648], the IC50 in experiment [1] and in experiment [2] was 1000 to 10000 nM each time.
As for `CNCC(C)NCc1cc(Nc2nc(C)cc(NC)n2)ccc1OC` (stereo not drawn) [Compound 1037], the IC50 in experiment [1] and in experiment [2] was 100 to 1000 nM throughout.
Consider `COc1cc(NC2CCNCC2)ncc1OCC1CCN(C)C1` (stereo not drawn) [Compound 604], for which the IC50 in experiment [1] and in experiment [2] was 100 to 1000 nM throughout.
As for `COc1cc2c(C)nc(N3CCNCC3)nc2cc1OCCCN1CCCC1` [Compound 739], the IC50 is > 10000 nM in experiment [1] and 1000 to 10000 nM in experiment [2].
Taken in the same sequence, the figures for `CNc1cc(C)c2cc(OC)c(OC[C@H](O)CN3CCC3)cc2n1` [Compound 1028] were < 100 nM and < 100 nM.
The corresponding values for `COc1cc2c(C3CCN(C)CC3)cc(C)nc2cc1OCCCN1CC[C@H](F)C1` [Compound 741] are 100 to 1000 nM and 100 to 1000 nM.
Turning to `COc1cc2c(C)cc(N3CCNCC3)nc2cc1OCCCN1CCCC1` [Compound 738], the IC50 in experiment [1] and in experiment [2] was 100 to 1000 nM in each case.

(Values after patent publication US20210198277A1, “AMINE-SUBSTITUTED ARYL OR HETEROARYL COMPOUNDS” (Epizyme, Inc., priority 2016, published 2021).)
